In PMC7248693, “Synthesis and Biological Evaluation of 2-Substituted Benzyl-/Phenylethylamino-4-amino-5-aroylthiazoles as Apoptosis-Inducing Anticancer Agents” (Molecules, 2020):

Key:
tubulin = conditions: previously reported series with general structure 2; reference not printed at the place; read-out: IC50 tubulin assembly assay; cited from earlier work
[1] = system: panel of four different cancer cell lines; parameters: method as in earlier work; conditions: read-out: IC50 against a panel of four different cancer cell lines; cited from earlier work
U-937 = experiment: Antiproliferative activity, MTT assay, U-937 cells; assay type: cell-based, human; conditions: for IC50: Homo sapiens, U-937, 72 h, MTT, mean ± SE, at least three independent experiments
Description: (§1) In Table 1, we summarize the antiproliferative activity of the 15 novel 2-arylalkylamino-4-amino-5-(3′,4′,5′-trimethoxybenzoyl)thiazole derivatives 8a–o against human leukemia (U-937) and melanoma (SK-MEL-1) tumor cells lines.
(§2) Human U-937 and SK-MEL-1 cell lines were from the German Collection of Microorganisms and Cell Cultures (Braunschweig, Germany; DSMZ No: ACC 5 and ACC 303, respectively). The U-937 is a myeloid leukemia cell line isolated from a histiocytic lymphoma. SK-MEL-1 is a melanoma cell line. Cells were cultured in suspension in RPMI 1640 medium supplemented with 10% (v/v) fetal bovine serum and antibiotics (100 μg mL^−1 streptomycin and 100 U mL^−1 penicillin), at 37 °C in a humidified atmosphere containing 5% CO2. The trypan blue exclusion method was used for counting the cells by a hemocytometer, and cell viability was always greater than 95% in all experiments. Compounds were dissolved in DMSO, and further dilutions were made in culture medium just before use. […] The effects on cell viability of synthetic compounds were determined using a colorimetric assay with the reduction of 3-(4,5-dimethyl-2-thiazolyl-)-2,5-diphenyl-2H-tetrazolium bromide (MTT) as previously described. Briefly, 5 × 10^3 cells were seeded in 96-well microculture plates with increasing concentrations of compounds for 72 h. Then, MTT (0.5 mg mL^−1) was added and incubated for 4 h, and the reaction was stopped with 20% sodium dodecyl sulfate. A570 was used as a measure of cell viability. Concentrations inducing a 50% inhibition of cell growth were determined graphically by nonlinear regression using the curve-fitting algorithm of GraphPad Prism 4.0 (GraphPad Inc La Jolla, CA, USA).

SK-MEL-1 = experiment: Antiproliferative activity, MTT assay, SK-MEL-1 cells; assay type: cell-based, human; conditions: Homo sapiens, SK-MEL-1; 72 h, MTT; mean ± SE, at least three independent experiments
Description: as §1, §2

[2] = Cytotoxicity against peripheral blood lymphocytes, MTT assay; assay type: cell-based; conditions: human, peripheral blood lymphocytes (PBL) from healthy donors, read-out: IC50 cytotoxic activity against normal cells (PBL)
Protocol: In order to investigate the selective antiproliferative activity of the new synthesized compounds, we tested representative derivatives 8f and 8k against peripheral blood lymphocytes (PBL) isolated from healthy donors.
PBLs from healthy donors were obtained by separation on Lymphoprep (Fresenius KABI Norge AS, Halden, Norway) gradient. After extensive washing, cells were resuspended (1.0 × 10^6 cells/mL) in RPMI-1640 with 10% fetal bovine serum and incubated overnight in a 96-well tissue culture microtiter plate. Varying compound concentrations were added to the cells, and the MTT assay was used to assess viability after a 48 h treatment.

Bovine brain tubulin = experiment: Inhibition of tubulin polymerization (turbidimetric assembly); assay type: biochemical; conditions: for IC50: 10 μM tubulin, 20 min incubation at 30 °C; for inhibition of tubulin polymerization: at high concentrations (up to 20 μM)
Protocol: Bovine brain tubulin was purified as described previously. To evaluate the effect of the compounds on tubulin assembly in vitro [31], varying concentrations were preincubated with 10 μM tubulin in glutamate buffer at 30 °C and then cooled to 0 °C. After addition of GTP, the mixtures were transferred to 0 °C cuvettes in a recording spectrophotometer and warmed to 30 °C, and the assembly of tubulin was observed turbidimetrically. The IC50 was defined as the compound concentration that inhibited the extent of assembly by 50% after a 20 min incubation.

CDK4/Cyclin D1 = biological target: T1, CDK4/Cyclin D1 (Homo sapiens, UniProt P11802); experiment: In vitro CDK inhibition assay (ADP-Glo), CDK4; assay type: biochemical; conditions: single concentration of 10 μM; range over CDK4, CDK6, CDK9 and 8f, 8k; read-out: enzyme inhibition CDK4
T1 construct: purchased ProQinase
T1 sequence (P11802 whole entry): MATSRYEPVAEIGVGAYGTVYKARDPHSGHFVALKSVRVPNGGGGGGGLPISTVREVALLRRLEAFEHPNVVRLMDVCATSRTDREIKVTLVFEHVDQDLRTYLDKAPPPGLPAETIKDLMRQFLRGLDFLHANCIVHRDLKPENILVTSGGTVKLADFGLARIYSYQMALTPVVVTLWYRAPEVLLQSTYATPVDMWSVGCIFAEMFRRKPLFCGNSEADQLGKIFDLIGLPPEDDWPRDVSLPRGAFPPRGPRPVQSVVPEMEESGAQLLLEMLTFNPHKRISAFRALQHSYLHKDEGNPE
T1 sequence (P24385 whole entry partner): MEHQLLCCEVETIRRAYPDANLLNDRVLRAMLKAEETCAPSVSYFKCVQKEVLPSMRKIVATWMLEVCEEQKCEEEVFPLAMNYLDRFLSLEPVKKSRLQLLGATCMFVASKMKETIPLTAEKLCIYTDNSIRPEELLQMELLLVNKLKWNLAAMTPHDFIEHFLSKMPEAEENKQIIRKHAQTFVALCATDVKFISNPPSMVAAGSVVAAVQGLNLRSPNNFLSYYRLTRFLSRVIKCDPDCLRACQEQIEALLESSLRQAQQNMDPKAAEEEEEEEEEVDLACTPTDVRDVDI
Protocol: (§3) The CDK4, 6 and 9 inhibitory activies were determined using the CDK4/Cyclin D1 Assay kit (ProQinase, Freiburg im Breisgau, Germany), CDK6/Cyclin D3 Kinase Enzyme System (Promega, Milan, Italy) and CDK9/CyclinK Kinase Enzyme System (Promega) by ADP-Glo CDK assays following the manufacturer’s instructions. The assay was performed with the test compounds at 10 μM.

CDK6/Cyclin D3 = biological target: T2, CDK6/Cyclin D3 (Homo sapiens, UniProt Q00534); experiment: In vitro CDK inhibition assay (ADP-Glo), CDK6; assay type: biochemical; conditions: single concentration of 10 μM; range over CDK4, CDK6, CDK9 and 8f, 8k; read-out: enzyme inhibition CDK6
T2 construct: purchased Promega
T2 sequence (Q00534 whole entry): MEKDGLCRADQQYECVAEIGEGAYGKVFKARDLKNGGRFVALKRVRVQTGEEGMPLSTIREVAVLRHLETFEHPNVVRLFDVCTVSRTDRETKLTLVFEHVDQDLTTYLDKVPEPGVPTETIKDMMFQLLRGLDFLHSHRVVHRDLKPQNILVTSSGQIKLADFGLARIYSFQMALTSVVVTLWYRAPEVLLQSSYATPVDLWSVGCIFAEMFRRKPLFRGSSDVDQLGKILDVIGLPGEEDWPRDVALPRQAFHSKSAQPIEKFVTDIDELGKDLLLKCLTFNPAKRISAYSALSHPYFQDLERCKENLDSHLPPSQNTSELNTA
T2 sequence (P30281 whole entry partner): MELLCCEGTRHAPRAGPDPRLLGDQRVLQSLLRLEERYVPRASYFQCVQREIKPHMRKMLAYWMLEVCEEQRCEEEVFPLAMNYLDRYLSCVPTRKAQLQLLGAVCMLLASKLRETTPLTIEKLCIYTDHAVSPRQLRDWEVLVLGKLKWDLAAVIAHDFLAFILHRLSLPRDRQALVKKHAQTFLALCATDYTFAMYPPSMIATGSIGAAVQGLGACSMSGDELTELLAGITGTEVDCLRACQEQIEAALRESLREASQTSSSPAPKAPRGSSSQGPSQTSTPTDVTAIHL
Protocol: as §3

CDK9/CyclinK = biological target: T3, CDK9/CyclinK (Homo sapiens, UniProt P50750); experiment: In vitro CDK inhibition assay (ADP-Glo), CDK9; assay type: biochemical; conditions: single concentration of 10 μM; range over CDK4, CDK6, CDK9 and 8f, 8k; read-out: enzyme inhibition CDK9
T3 construct: purchased Promega
T3 sequence (P50750 whole entry): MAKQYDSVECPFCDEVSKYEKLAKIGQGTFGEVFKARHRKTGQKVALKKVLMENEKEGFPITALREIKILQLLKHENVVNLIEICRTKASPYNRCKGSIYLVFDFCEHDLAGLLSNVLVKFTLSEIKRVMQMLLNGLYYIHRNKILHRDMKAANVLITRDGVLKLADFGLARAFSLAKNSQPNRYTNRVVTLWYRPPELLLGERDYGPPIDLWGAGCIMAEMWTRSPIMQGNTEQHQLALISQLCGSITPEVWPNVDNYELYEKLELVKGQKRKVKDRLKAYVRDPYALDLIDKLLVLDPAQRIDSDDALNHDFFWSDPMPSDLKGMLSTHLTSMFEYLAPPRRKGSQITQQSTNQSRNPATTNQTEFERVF
T3 sequence (O75909 whole entry partner): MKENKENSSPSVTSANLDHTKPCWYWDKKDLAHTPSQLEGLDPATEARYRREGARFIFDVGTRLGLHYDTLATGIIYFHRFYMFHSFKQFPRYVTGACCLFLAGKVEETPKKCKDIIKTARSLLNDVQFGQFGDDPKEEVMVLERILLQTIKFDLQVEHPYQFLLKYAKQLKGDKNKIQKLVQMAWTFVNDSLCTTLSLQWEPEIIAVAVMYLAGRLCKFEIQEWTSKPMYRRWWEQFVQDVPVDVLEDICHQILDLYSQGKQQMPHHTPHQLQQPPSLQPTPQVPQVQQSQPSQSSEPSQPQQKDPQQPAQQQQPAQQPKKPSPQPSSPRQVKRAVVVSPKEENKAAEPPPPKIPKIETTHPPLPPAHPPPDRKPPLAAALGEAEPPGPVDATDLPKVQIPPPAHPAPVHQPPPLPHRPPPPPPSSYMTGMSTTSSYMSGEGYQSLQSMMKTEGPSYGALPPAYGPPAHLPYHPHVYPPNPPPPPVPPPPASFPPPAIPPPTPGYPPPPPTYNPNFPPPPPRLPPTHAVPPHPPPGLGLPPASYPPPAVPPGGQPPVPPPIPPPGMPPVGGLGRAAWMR
Protocol: as §3

U-937 leukemia cells = experiment: Cell cycle analysis by flow cytometry (propidium iodide); assay type: cell-based, human
Protocol: Induction of apoptosis in cancer cells is recognized as an efficient strategy for cancer chemotherapy. For this reason, it was decided to determine whether these compounds display their cytotoxic action through alterations in cell cycle progression and induction of cell apotosis. To this end, the effects at different time periods (6, 12 and 24 h) with different concentrations (10 and 30 μM) of 8f and 8k on cell cycle progression on U-937 leukemia cells were investigated by flow cytometry analyses.
Flow cytometric analysis of propidium iodide-stained cells was performed as previously described. Briefly, U-937 cells were treated with the indicated compounds at the specified concentrations in RPMI 1640 medium. After treatments, cells were centrifuged for 10 min at 500× g, washed with cold phosphate-buffered saline (PBS), fixed with ice-cold 75% ethanol and stored at −20 °C for at least 1 h. Samples were then centrifuged at 500 × g for 10 min at 4 °C, washed with PBS, resuspended in 200 μL of PBS containing 100 μg mL^−1 RNase A and 50 μg mL^−1 propidium iodide and incubated for 1 h in the dark. The DNA content was analyzed by flow cytometry with a Becton-Dickinson FACSVerse^TM cytometer (BD Biosciences, San Jose, CA, USA). The percentage of cells in each phase of the cell cycle was determined for a minimum of 10^4 cells, and histograms were analyzed with Flowing 2.5.0 software.

CDK9 = system: CDK9; parameters: method as in PMID 30454645; conditions: cited from earlier work

Compound	IC50 (tubulin) [µM]	IC50 (U-937) [µM]	IC50 (SK-MEL-1) [µM]	IC50 at 48 h [2] [µM]	IC50 (Bovine brain tubulin) [µM]	inhibition of tubulin polymerization (Bovine brain tubulin)	inhibition at 10 µM (CDK4/Cyclin D1) [%]	inhibition at 10 µM (CDK6/Cyclin D3) [%]	inhibition at 10 µM (CDK9/CyclinK) [%]	% G1 (U-937 leukemia cells; 6 h, 10 µM) [%]	% G2-M (U-937 leukemia cells; 6 h, 10 µM) [%]	% S (U-937 leukemia cells; 6 h, 10 µM) [%]	% Sub-G1 (U-937 leukemia cells; 6 h, 10 µM) [%]	% G1 (U-937 leukemia cells; 6 h, 30 µM) [%]	% G2-M (U-937 leukemia cells; 6 h, 30 µM) [%]	% S (U-937 leukemia cells; 6 h, 30 µM) [%]	% Sub-G1 (U-937 leukemia cells; 6 h, 30 µM) [%]	% G1 (U-937 leukemia cells; 12 h, 10 µM) [%]	% G2-M (U-937 leukemia cells; 12 h, 10 µM) [%]	% S (U-937 leukemia cells; 12 h, 10 µM) [%]	further results
COc1cc(C(=O)c2sc(Nc3ccc(C)cc3)nc2N)cc(OC)c1OC [2b]	0.72	–	–	–	–	–	–	–	–	–	–	–	–	–	–	–	–	–	–	–	–
COc1cc(C(=O)c2sc(N(C)Cc3ccccc3)nc2N)cc(OC)c1OC [3a]	–	–	–	–	–	–	–	–	–	–	–	–	–	–	–	–	–	–	–	–	IC50 [1]: < 200 µM
COc1cc(C(=O)c2sc(NCCc3ccc(Cl)cc3)nc2N)cc(OC)c1OC [8f, (4-Amino-2-((4-chlorophenethyl)amino)thiazol-5-yl)(3,4,5-trimethoxyphenyl)methanone]	–	6.7 ± 3.6	12.2 ± 3.2	> 100	> 20	did not show any noteworthy inhibition	2 to 8	2 to 8	2 to 8	40.4 ± 1.0	23.6 ± 1.3	29.3 ± 0.1	4.4 ± 0.5	40.5 ± 1.6	23.3 ± 1.4	30.9 ± 0.4	3.8 ± 0.1	47.8 ± 1.0	21.5 ± 1.2	22.4 ± 0.2	% Sub-G1 (U-937 leukemia cells; 12 h, 10 µM): 6.5 ± 0.2 %; % G1 (U-937 leukemia cells; 12 h, 30 µM): 27.4 ± 0.4 %; % G2-M (U-937 leukemia cells; 12 h, 30 µM): 27.6 ± 0.6 %; % S (U-937 leukemia cells; 12 h, 30 µM): 25.5 ± 0.1 %; % Sub-G1 (U-937 leukemia cells; 12 h, 30 µM): 17.8 ± 1.0 %; % G1 (U-937 leukemia cells; 24 h, 10 µM): 42.5 ± 0.3 %; % G2-M (U-937 leukemia cells; 24 h, 10 µM): 15.0 ± 0.8%; % S (U-937 leukemia cells; 24 h, 10 µM): 29.8 ± 0.3 %; % Sub-G1 (U-937 leukemia cells; 24 h, 10 µM): 10.3 ± 0.7 %; % G1 (U-937 leukemia cells; 24 h, 30 µM): 12.6 ± 0.7 %; % G2-M (U-937 leukemia cells; 24 h, 30 µM): 16.6 ± 0.8%; % S (U-937 leukemia cells; 24 h, 30 µM): 13.6 ± 0.6 %; % Sub-G1 (U-937 leukemia cells; 24 h, 30 µM): 56.2 ± 2.0 %; increase of apoptotic cells with respect to control cells (U-937 leukemia cells; 24 h, 30 µM): approximately 16.5 fold
COc1ccc(CCNc2nc(N)c(C(=O)c3cc(OC)c(OC)c(OC)c3)s2)cc1 [8k, (4-Amino-2-((4-methoxyphenethyl)amino)thiazol-5-yl)(3,4,5-trimethoxyphenyl)methanone]	–	5.7 ± 1.3	8 ± 4.3	> 100	> 20	did not show any noteworthy inhibition	2 to 8	2 to 8	2 to 8	38.7 ± 0.3	25.3 ± 0.2	30.7 ± 0.1	3.7 ± 0.4	35.6 ± 0.5	23.1 ± 0.4	32.0 ± 0.5	7.6 ± 0.5	41.9 ± 0.1	23.7 ± 1.4	20.2 ± 0.4	increase of antiproliferative activity relative to 8j (U-937; cell line not specified (U-937 and SK-MEL-1)): 3-4 fold; % Sub-G1 (U-937 leukemia cells; 12 h, 10 µM): 12.1 ± 0.8 %; % G1 (U-937 leukemia cells; 12 h, 30 µM): 17.3 ± 0.4 %; % G2-M (U-937 leukemia cells; 12 h, 30 µM): 29.9 ± 1.7 %; % S (U-937 leukemia cells; 12 h, 30 µM): 26.8 ± 0.2 %; % Sub-G1 (U-937 leukemia cells; 12 h, 30 µM): 24.3 ± 1.5 %; % G1 (U-937 leukemia cells; 24 h, 10 µM): 39.4 ± 0.2 %; % G2-M (U-937 leukemia cells; 24 h, 10 µM): 17.2 ± 0.6%; % S (U-937 leukemia cells; 24 h, 10 µM): 28.4 ± 1.1 %; % Sub-G1 (U-937 leukemia cells; 24 h, 10 µM): 12.7 ± 0.1 %; % G1 (U-937 leukemia cells; 24 h, 30 µM): 11.2 ± 0.9 %; % G2-M (U-937 leukemia cells; 24 h, 30 µM): 23.8 ± 2.9 %; % S (U-937 leukemia cells; 24 h, 30 µM): 11.5 ± 0.4 %; % Sub-G1 (U-937 leukemia cells; 24 h, 30 µM): 51.5 ± 4.2 %; increase of apoptotic cells with respect to control cells (U-937 leukemia cells; 24 h, 30 µM): ~15 fold
COc1ccc(/C=C\c2cc(OC)c(OC)c(OC)c2)cc1O [CA-4, combretastatin A-4, reference compound]	1.4	0.019 ± 0.012	3.1 ± 2.9	–	–	–	–	–	–	–	–	–	–	–	–	–	–	–	–	–	–
Nc1nc(N[C@H]2CC3CCC2C3)sc1C(=O)c1ccccc1[N+](=O)[O-] (stereo partly drawn) [compound 7, 2-(exo-2′-aminonorbornane)-4-amino-5-(2′-nitrobenzoyl)-thiazole]	–	–	–	–	–	–	–	–	–	–	–	–	–	–	–	–	–	–	–	–	selectivity for CDK9 than for other CDKs (CDK9): at least 22 fold
